These results are taken from PMC10160982 (Proceedings of the National Academy of Sciences of the …, 2023).

The term IC50 denotes the concentration that gives 50% inhibition.

The target of the experiment is SARS-CoV-2 M^pro (Severe acute respiratory syndrome coronavirus 2, UniProt P0DTD1). Kind of experiment: FRET-based SARS-CoV-2 Mpro inhibition activity assay. Conditions: SARS-CoV-2 M^pro inhibition IC50, FRET-based protease assay. Type of experiment: biochemical.

For `COc1cc(O)ccc1/C=C/C(=O)c1ccc(O)cc1` [Echinatin], inhibition was half-maximal at 22.5 µM (IC50).
